The assay has as its system yellow broilers. Put plainly: Effect on the production performance of broilers (30-day feeding trial). Format: in vivo. The conditions noted are these: for ADFI (average daily feed intake) / ADG (average daily weight gain) / FCR (feed conversion ratio): 30 days, broilers; for effects on the production performance of broilers compared with hexahydro-colupulone (in words): in vivo. From the text:
Single-factor was used to conduct the trial. 540 1-day-old yellow broilers with a similar average body weight of 50 g were randomly divided into 6 groups, with 6 replicates per group, equal amount of males and females and 15 yellow broilers per replicate. The chicken house and tools were sterilized before the trial. During the trial, the broilers were kept in separate regions in the same chicken house under the same feeding and management conditions. During the trial, each test group was fed with basal formula feed consisting of corn and soybean and not fed with other antioxidants or growth enhancers. The groups were known as control group (group 1) and test groups 2 to 6, wherein the control group was fed with basal formula feed only, while the test groups 2 to 6 were fed with basal formula feeds respectively mixed with hexahydro-colupulone, hexahydro-colupulone mono-acetate, or hexahydro-colupulone mono-butyrate, as shown in Table 5.
The trial lasted for 30 days. The broilers were given free hand with feed and water and were fed twice a day. To calculate the average daily feed intake (ADFI, g/d per broiler), the average daily weigh gain (ADG, g/d per broiler) and the feed conversion ratio (FCR), the 31 days old broilers (12 hours without feed but water) of each replication as one unit were weighed, and the amount of the feed consumed thereby was counted. Feed conversion ratio (FCR)=average daily feed intake/average daily weight gain

As to `CC(=O)OC1=C(CCC(C)C)C(=O)C(CCC(C)C)(CCC(C)C)C(O)=C1C(=O)C(C)C` [hexahydro-colupulone mono-acetate, Hexahydro-Colupulone Mono-Acetate], the “effects on the production performance of broilers compared with hexahydro-colupulone (in words)” value is “equivalent”. Also, under “2 ppm in feed”, the “ADFI (average daily feed intake)” value stood at 49.13 g/d per broiler, the “ADG (average daily weight gain)” value stood at 25.67 g/d per broiler and the “FCR (feed conversion ratio)” value was found to be 2.02. Where the note is “20 ppm in feed”, the “ADFI (average daily feed intake)” value came out at 50.06 g/d per broiler, the “ADG (average daily weight gain)” value was 27.36 g/d per broiler and the “FCR (feed conversion ratio)” value is listed as 1.95.

Take `CCCC(=O)OC1=C(CCC(C)C)C(=O)C(CCC(C)C)(CCC(C)C)C(O)=C1C(=O)C(C)C` [hexahydro-colupulone mono-butyrate]: the “effects on the production performance of broilers compared with hexahydro-colupulone (in words)” value is “equivalent”. Moreover, where the note is “2 ppm in feed”, the “ADFI (average daily feed intake)” value amounted to 48.32 g/d per broiler, the “ADG (average daily weight gain)” value turned out to be 24.65 g/d per broiler and the “FCR (feed conversion ratio)” value worked out at 1.96. Also, under “20 ppm in feed”, the “ADFI (average daily feed intake)” value stood at 49.95 g/d per broiler, the “ADG (average daily weight gain)” value was determined as 25.88 g/d per broiler and the “FCR (feed conversion ratio)” value came out at 1.93.

Turning to `CC(C)CCC1=C(O)C(C(=O)C(C)C)=C(O)C(CCC(C)C)(CCC(C)C)C1=O` [hexahydro-colupulone, reference compound], where the note is “20 ppm in feed”, the “ADFI (average daily feed intake)” value is listed as 49.68 g/d per broiler, the “ADG (average daily weight gain)” value turned out to be 25.19 g/d per broiler and the “FCR (feed conversion ratio)” value stood at 1.97.
